# Reference: patent US7026339B2, “Inhibitors of HCV NS5B polymerase” (priority 2003, dated 2006)
# Test system: HuH-7 replicon cells 5–15 and 9–13 (HCV replication)
# Experiment: Inhibition of viral replication in HuH-7 replicon cells (HCV RNA / GAPDH RNA by multiplex RT-PCR)
# Format: cell-based
# Details: Hepatitis C virus, 72 h; inhibiting 50% of replication; HuH-7 replicon cells, 3 days; read-out: IC50
# Summary of the method: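 HCV and GAPDH RNA were measured by multiplex TaqMan RT-PCR (HCV 5′ untranslated region) after 3-day compound treatment at 37 °C, final 100 μM–1 μM in 1% DMSO. Cells were plated 24 h beforehand at 7×10^3/well. Read-out: HCV-to-GAPDH ratio expressed as percent control versus untreated cells.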
row,Structure (SMILES),IC50 [µM]
1,"O=C(Cc1cccc(Cl)c1)N/N=C/c1c(Cl)cccc1OS(=O)(=O)c1ccc(C(F)(F)F)cc1 [Compound 194, 3-chloro-2-((E)-{[(3-chlorophenyl)acetyl]hydrazono}methyl)-phenyl 4-(trifluoromethyl)benzenesulfonate]",< 5
2,"COc1cccc(CC(=O)N/N=C/c2ccccc2OS(=O)(=O)c2ccc(C(C)=O)cc2)c1 [Compound 195, 2-((E)-{2-[2-(3-methoxyphenyl)acetyl]hydrazono}methyl)-phenyl 4-acetylbenzenesulfonate]",< 5
3,"COc1cccc(CC(=O)N/N=C/c2ccccc2OS(=O)(=O)c2ccc(-n3cccn3)cc2)c1 [Compound 196, 2-((E)-{2-[2-(3-methoxyphenyl)acetyl]hydrazono}methyl)-phenyl 4-(1H-pyrazol-1-yl)benzenesulfonate]",< 5
4,"COc1cccc(CC(=O)N/N=C/c2ccccc2OS(=O)(=O)c2ccc(-c3cnco3)cc2)c1 [Compound 197, 2-((E)-{2-[2-(3-methoxyphenyl)acetyl]hydrazono}methyl)-phenyl 4-(1,3-oxazol-5-yl)benzenesulfonate]",< 5
5,"CCC(C)(C)c1ccc(S(=O)(=O)Oc2ccccc2/C=N/NC(=O)Cc2cccc(OC)c2)cc1 [Compound 198, 2-((E)-{2-[2-(3-methoxyphenyl)acetyl]hydrazono}methyl)-phenyl 4-(1,1-dimethylpropyl)benzenesulfonate]",< 5
6,"CCCCOc1ccc(S(=O)(=O)Oc2ccccc2/C=N/NC(=O)Cc2cccc(OC)c2)cc1 [Compound 199, 2-((E)-{2-[2-(3-methoxyphenyl)acetyl]hydrazono}methyl)-phenyl 4-butoxybenzenesulfonate]",< 5
7,"COc1cccc(CC(=O)N/N=C/c2ccccc2OS(=O)(=O)c2ccc(-c3cnco3)s2)c1 [Compound 200, 2-((E)-{2-[2-(3-methoxyphenyl)acetyl]hydrazono}methyl)-phenyl 5-(1,3-oxazol-5-yl)thiophene-2-sulfonate]",< 5
8,"COc1cccc(CC(=O)N/N=C/c2ccccc2OS(=O)(=O)c2ccc(Oc3ccccc3)nc2)c1 [Compound 201, 2-((E)-{2-[2-(3-methoxyphenyl)acetyl]hydrazono}methyl)-phenyl 6-phenoxypyridine-3-sulfonate]",< 5
9,"COc1cccc(CC(=O)N/N=C/c2ccccc2OS(=O)(=O)c2ccc(Oc3ccc(F)cc3)cc2)c1 [Compound 202, 2-((E)-{2-[2-(3-methoxyphenyl)acetyl]hydrazono}methyl)-phenyl 4-(4-fluorophenoxy)benzenesulfonate]",> 50
10,"COc1cccc(CC(=O)N/N=C/c2c(C)cccc2OS(=O)(=O)c2ccc(C(F)(F)F)cc2)c1 [Compound 203, 2-((E)-{[(3-methoxyphenyl)acetyl]hydrazono}methyl)-3-methylphenyl 4-(trifluoromethyl)benzenesulfonate]",< 5
11,"COc1cccc(CC(=O)N/N=C/c2c(C)cccc2OS(=O)(=O)c2ccc(C)cc2)c1 [Compound 204, 2-((E)-{[(3-methoxyphenyl)acetyl]hydrazono}methyl)-3-methylphenyl 4-methylbenzenesulfonate]",< 5
12,"Cc1ccc(S(=O)(=O)Oc2cccc(F)c2/C=N/NC(=O)Cc2cccc(Cl)c2)cc1 [Compound 205, 2-((E)-{[(3-chlorophenyl)acetyl]hydrazono}methyl)-3-fluorophenyl 4-methylbenzenesulfonate]",5 to 50
13,"O=C(Cc1cccc(Cl)c1)N/N=C/c1c(F)cccc1OS(=O)(=O)c1ccc(C(F)(F)F)cc1 [Compound 206, 2-((E)-{[(3-chlorophenyl)acetyl]hydrazono}methyl)-3-fluorophenyl 4-(trifluoromethyl)benzenesulfonate]",< 5
14,"COc1cccc(CC(=O)N/N=C/c2c(F)cccc2OS(=O)(=O)c2ccc(C(F)(F)F)cc2)c1 [Compound 207, 3-fluoro-2-((E)-{[(3-methoxyphenyl)acetyl]hydrazono}methyl)-phenyl 4-(trifluoromethyl)benzenesulfonate]",< 5
15,"COc1cccc(CC(=O)N/N=C/c2c(F)cccc2OS(=O)(=O)c2ccc(C)cc2)c1 [Compound 208, 3-fluoro-2-((E)-{[(3-methoxyphenyl)acetyl]hydrazono}methyl)-phenyl 4-methylbenzenesulfonate]",5 to 50
16,"COc1cccc(CC(=O)N/N=C/c2ccc(Cl)cc2OS(=O)(=O)c2ccc(C)cc2)c1 [Compound 209, 5-chloro-2-((E)-{[(3-methoxyphenyl)acetyl]hydrazono}methyl)-phenyl 4-methylbenzenesulfonate]",< 5
17,"COc1cccc(CC(=O)N/N=C/c2ccc(Cl)cc2OS(=O)(=O)c2ccc(C(F)(F)F)cc2)c1 [Compound 210, 5-chloro-2-((E)-{[(3-methoxyphenyl)acetyl]hydrazono}methyl)-phenyl 4-(trifluoromethyl)benzenesulfonate]",5 to 50

row,Structure (SMILES),IC50 [µM]
1,"O=C(Cc1cccc(Cl)c1)N/N=C/c1ccc(F)cc1OS(=O)(=O)c1ccc(C(F)(F)F)cc1 [Compound 211, 2-((E)-{[(3-chlorophenyl)acetyl]hydrazono}methyl)-5-fluorophenyl 4-(trifluoromethyl)benzenesulfonate]",5 to 50
2,"Cc1ccc(S(=O)(=O)Oc2cc(F)ccc2/C=N/NC(=O)Cc2cccc(Cl)c2)cc1 [Compound 212, 2-((E)-{[(3-chlorophenyl)acetyl]hydrazono}methyl)-5-fluorophenyl 4-methylbenzenesulfonate]",< 5
3,"O=C(Cc1cccc(Cl)c1)N/N=C/c1ncccc1OS(=O)(=O)c1ccc(C(F)(F)F)cc1 [Compound 213, 2-((E)-{2-[2-(3-chlorophenyl)acetyl]hydrazono}methyl)-pyridin-3-yl 4-(trifluoromethyl)benzenesulfonate]",5 to 50
4,"COc1cccc(CC(=O)N/N=C/c2ncccc2OS(=O)(=O)c2ccc(C(F)(F)F)cc2)c1 [Compound 214, 2-((E)-{2-[2-(3-methoxyphenyl)acetyl]hydrazono}methyl)-pyridin-3-yl 4-(trifluoromethyl)benzenesulfonate]",5 to 50
5,"O=C(Cc1cccc(Cl)c1)N/N=C/c1cccnc1OS(=O)(=O)c1ccc(C(F)(F)F)cc1 [Compound 215, 3-((E)-{2-[2-(3-chlorophenyl)acetyl]hydrazono}methyl)-pyridin-2-yl 4-(trifluoromethyl)benzenesulfonate]",> 50
6,"COc1cccc(CC(=O)N/N=C/c2ccccc2OS(=O)(=O)c2ccc(N3CCOCC3)nc2)c1 [Compound 216, 2-((E)-{2-[2-(3-methoxyphenyl)acetyl]hydrazono}methyl)-phenyl 6-morpholin-4-ylpyridine-3-sulfonate]",5 to 50
7,"COc1cccc(CC(=O)N/N=C/c2ccccc2OS(=O)(=O)c2ccc(Oc3cccnc3)cc2)c1 [Compound 217, 2-((E)-{2-[2-(3-methoxyphenyl)acetyl]hydrazono}methyl)-phenyl 4-(pyridin-3-yloxy)benzenesulfonate]",5 to 50
8,"COc1cccc(CC(=O)N/N=C/c2ccccc2OS(=O)(=O)c2ccc(Oc3ncc(C(F)(F)F)cc3Cl)cc2)c1 [Compound 218, 2-((E)-{2-[2-(3-methoxyphenyl)acetyl]hydrazono}methyl)-phenyl 4-{[3-chloro-5-(trifluoromethyl)pyridin-2-yl]oxy}benzenesulfonate]",> 50
9,"C/C(=N\NC(=O)Cc1ccccc1)c1ccccc1OS(=O)(=O)c1ccc(C(F)(F)F)cc1 [Compound 219, 2-[(1E)-N-(phenylacetyl)ethanehydrazonoyl]phenyl4-(trifluoromethyl)benzenesulfonate]",> 50
10,"COc1cccc(CC(=O)N/N=C(\C)c2cc(F)ccc2OS(=O)(=O)c2ccc(C(F)(F)F)cc2)c1 [Compound 220, 4-fluoro-2-{(1E)-N-[(3-methoxyphenyl)acetyl]ethanehydrazonoyl}-phenyl 4-(trifluoromethyl)-benzenesulfonate]",> 50
11,"COc1cccc(CC(=O)N/N=C(\C)c2ccccc2OS(=O)(=O)c2ccc(C(F)(F)F)cc2)c1 [Compound 221, 2-{(1E)-N-[(3-methoxyphenyl)acetyl]ethanehydrazonoyl}-phenyl 4-(trifluoromethyl)benzenesulfonate]",> 50
12,"COc1cccc(CC(=O)N/N=C(\C)c2ccc(F)cc2OS(=O)(=O)c2ccc(C(F)(F)F)cc2)c1 [Compound 222, 5-fluoro-2-{(1E)-N-[(3-methoxyphenyl)acetyl]ethanehydrazonoyl}-phenyl 4-(trifluoromethyl)benzenesulfonate]",> 50
13,"C/C(=N\NC(=O)Cc1ccc(Cl)c(Cl)c1)c1ccccc1OS(=O)(=O)c1ccc(C(F)(F)F)cc1 [Compound 223, 2-{(1E)-N-[(3,4-dichlorophenyl)acetyl]ethanehydrazonoyl}-phenyl 4-(trifluoromethyl)benzenesulfonate]",> 50
14,"COC(=O)CCc1ccc(S(=O)(=O)Oc2ccccc2/C=N/NC(=O)Cc2cccc(OC)c2)cc1 [Compound 224, methyl 3-(4-{[2-((E)-{[(3-methoxyphenyl)acetyl]hydrazono}methyl)-phenoxy]sulfonyl}phenyl)propanoate]",> 50
15,"COc1cccc(CC(=O)N/N=C/c2ccccc2OS(=O)(=O)c2ccc(OCc3cnc(Cl)s3)cc2)c1 [Compound 225, 2-((E)-{2-[2-(3-methoxyphenyl)acetyl]hydrazono}methyl)-phenyl 4-[(2-chloro-1,3-thiazol-5-yl)methoxy]benzenesulfonate]",> 50
16,"COc1cccc(CC(=O)N/N=C/c2ccccc2OS(=O)(=O)c2ccc(-c3cc(C(F)(F)F)n(C)n3)s2)c1 [Compound 226, 2-((E)-{2-[2-(3-methoxyphenyl)acetyl]hydrazono}methyl)-phenyl 5-[1-methyl-5-(trifluoromethyl)-1H-pyrazol-3-yl]thiophene-2-sulfonate]",< 5
17,"O=C(Cc1cccc(Cl)c1)N/N=C/c1ccncc1OS(=O)(=O)c1ccc(C(F)(F)F)cc1 [Compound 227, 4-((E)-{2-[2-(3-chlorophenyl)acetyl]hydrazono}methyl)-pyridin-3-yl 4-(trifluoromethyl)benzenesulfonate]",< 5
